Results from US7666685B2, “Screening method for identification of compounds suitable for treatment of oral cavity malodor associated with consumption of garlic” (Wm. Wrigley Jr. Company, priority 2005, dated 2010).
“And” between values parts separate entries of the source, which are not always exact repeats. Equal values may be shown once.

Legend:
[1] = In vitro dose response: SPME GC/MS headspace analysis of raw macerated garlic solution treated with active; details: for GC/MS Peak Area (diallyl disulfide headspace): individual runs; for GC/MS Peak Area (diallyl disulfide headspace), Mean: mean of 3 runs; for reduction of diallyl disulfide headspace concentration: vs control garlic solution
Experimental: A model solution containing raw chopped garlic (20 g) dispersed in water (200 ml) was prepared by blending in a Waring commercial blender (Waring Commercial, Torrington, Conn.) at low power for 30 seconds and at high power for 30 seconds. The resulting solution was homogeneous with no visible garlic particles present.
A portion of the raw, macerated garlic solution (5 g) was treated with different levels of potential ameliorating actives and the headspace was extracted and analyzed (as described in greater detail below) to determine the effect of the potential actives on the headspace concentration of compounds contributing to oral cavity malodor associated with consumption of garlic.
Headspace of a vessel containing a portion of the garlic solution (5 ml) treated with a potential active was extracted for 60 minutes utilizing solid phase microextraction (SPME) with a 75 μm Carboxen-polydimethyl siloxane fiber (Supelco, Bellefonte, Pa.).
The SPME fiber assembly was injected into an Agilent 6890 gas chromatograph (GC)/mass spectrometer (MS) modified for multidimensional analyses and equipped with a sniff port and Aroma Trax software (Microanalytics, Round Rock, Tex.). Fibers remained in the GC injection port for five minutes following injection.
The GC/MS operating parameters included a He carrier gas flow rate of 6.5 ml/min, split mode (2:1) and the injector set at 250° C. Column 1 was 12 meter, 0.53 mm I.D. with a methyl silica stationary phase. Column 2 was a 25 meter, 0.53 mm DB-5 capillary column. The oven was programmed to hold at 40° C. for 3 minutes and to heat to 220° C. at a rate of 7° C./min and hold at 220° C. for 20 minutes. The MS operated in Electron Impact Mode (E.I.) at 70 eV.
A model solution containing raw chopped garlic dispersed in water was prepared as described in Example 1. […] For comparison purposes, the diallyl disulfide content of the headspace of a control model solution (i.e., no menthone added) was also analyzed.

[2] = Sensory analysis: ten panelists rate the odor intensity of the raw macerated garlic solution with added active; details: for Odor Intensity (0–100): individual panelists, 0=no odor, 100=very strong odor; for Odor Intensity (0–100), Mean: mean of N = 10 panelists
Experimental: Sensory analysis of the solutions utilized for analytical analyses of the raw garlic described above was conducted by ten panelists who evaluated the odor intensity of the model solution (raw macerated garlic) with and without the different levels of added active. Odor intensity was assessed utilizing a 0-100 point scale ballot with 0=no odor and 100=very strong odor.

caryophyllene
GC/MS Peak Area (diallyl disulfide headspace) ([1]; 0.1 mg/g garlic solution): 52155883 and 49803124 and 56316479
GC/MS Peak Area (diallyl disulfide headspace), Mean ([1]; 0.1 mg/g garlic solution): 52758495
GC/MS Peak Area (diallyl disulfide headspace) ([1]; 0.24 mg/g garlic solution): 67591321 and 69400527 and 61729644
GC/MS Peak Area (diallyl disulfide headspace), Mean ([1]; 0.24 mg/g garlic solution): 66240497
GC/MS Peak Area (diallyl disulfide headspace) ([1]; 0.4 mg/g garlic solution): 93422075 and 91167385 and 94368797
GC/MS Peak Area (diallyl disulfide headspace), Mean ([1]; 0.4 mg/g garlic solution): 92986086
reduction of diallyl disulfide headspace concentration ([1]; active concentration 0.1 mg/g): 34%
reduction of diallyl disulfide headspace concentration ([1]; active concentration 0.4 mg/g): 63%
Odor Intensity (0–100) ([2]; 0.1 mg/g): 5 (3×) and 6 (2×) and 2 and 4 (3×) and 7
Odor Intensity (0–100), Mean ([2]; 0.1 mg/g): 4.8
Odor Intensity (0–100) ([2]; 0.2 mg/g): 4 (2×) and 5 (3×) and 9 (2×) and 8 and 3 (2×)
Odor Intensity (0–100), Mean ([2]; 0.2 mg/g): 5.5
Odor Intensity (0–100) ([2]; 0.4 mg/g): 2 and 5 and 3 (3×) and 4 (3×) and 0 and 1
Odor Intensity (0–100), Mean ([2]; 0.4 mg/g): 2.9
decrease of odor intensity (sensory) ([2]; active concentration 0.1 mg/g): 52%
decrease of odor intensity (sensory) ([2]; active concentration 0.4 mg/g): 71%

CC(C)[C@@H]1CC[C@@H](C)CC1=O [menthone]
GC/MS Peak Area (diallyl disulfide headspace) ([1]; 0.3 mg/g garlic solution): 46610414 and 58241626 and 60764744
GC/MS Peak Area (diallyl disulfide headspace), Mean ([1]; 0.3 mg/g garlic solution): 55205595
GC/MS Peak Area (diallyl disulfide headspace) ([1]; 1 mg/g garlic solution): 20835556 and 16829160 and 16827232
GC/MS Peak Area (diallyl disulfide headspace), Mean ([1]; 1 mg/g garlic solution): 18163983
GC/MS Peak Area (diallyl disulfide headspace) ([1]; 3 mg/g garlic solution): 6746448 and 4757863 and 5868573
GC/MS Peak Area (diallyl disulfide headspace), Mean ([1]; 3 mg/g garlic solution): 5790961.3
less diallyl disulfide in headspace than control model solution ([1]; Example 3: 1.63 mg in 2.5 g model solution, at each headspace analysis interval (5 hour intervals)): at least 50%
Odor Intensity (0–100) ([2]; 0.33 mg/g): 1 (2×) and 6 and 7 (4×) and 5 and 8 and 3
Odor Intensity (0–100), Mean ([2]; 0.33 mg/g): 5.2
Odor Intensity (0–100) ([2]; 1 mg/g): 1 and 2 (6×) and 4 (2×) and 6
Odor Intensity (0–100), Mean ([2]; 1 mg/g): 2.7
Odor Intensity (0–100) ([2]; 3 mg/g): 2 (2×) and 0 (2×) and 4 (2×) and 3 (2×) and 1 (2×)
Odor Intensity (0–100), Mean ([2]; 3 mg/g): 2
reduction of odor of raw macerated garlic in water (sensory) ([2]; active concentration 0.3 mg/g): 48%
reduction of odor of raw macerated garlic in water (sensory) ([2]; active concentration 3 mg/g): 80%
